The source of these data is US10189858B2, “Deuterium-enriched isoindolinonyl-piperidinonyl conjugates and oxoquinazolin-3(4H)-yl-piperidinonyl conjugates and methods of treating medical disorders using same” (DeuteRx, LLC, priority 2015, dated 2019).

A word on the half-life: it is how long it takes for the measured level to halve.

The nature of this data set: Deuterium/hydrogen (D/H) exchange in deuterium-enriched dBET1 in PBS (HPLC/UV and LC/MS). The format is physicochemical. Conditions: PBS pH 7.4, 25° C. How it is done:
In order to evaluate the stability against racemization provided by deuterium enrichment at the racemizable chiral center of the glutarimide portion of dBET1, a sample of racemic, deuterium-enriched dBET1 from Example 1 (i.e., D-dBET1 from Example 1) was incubated in PBS (pH=7.4) at 25° C. in the presence of ethyl paraben as an internal standard. A 20 μL solution of racemic, deuterium-enriched dBET1 (D-dBET1), aliquoted from 21.6 mg dissolved in 1 mL DMSO, was added to 4 mL of PBS (pH=7.4). The reaction was performed in duplicate. Aliquots were taken out at preset times and quenched with methanol in the presence of acetic acid (250 μL aliquot quenched with 500 μL 5% (v/v) acetic acid in methanol). The samples were analyzed by HPLC/UV (10 μL injection) and LC/MS (1 μL injection) using a reverse-phase column.
Since the reaction is performed in an achiral medium, the kinetics of D/H exchange will be independent of the chirality of the starting material. As a result, separation of the enantiomers of D-dBET1 prior to the stability study is not required.
A change in the ratio is expected if D/H exchange is observed since, for example, a peak at M+2, where M is the mass of the mono-deuterated isotopomer of dBET1, would by D/H exchange disappear and give a corresponding peak at M+1. Similarly, M+3 would give M+2, etc.

In turn, `[2H]C1(N2C(=O)c3cccc(OCC(=O)NCCCCNC(=O)C[C@@H]4N=C(c5ccc(Cl)cc5)c5c(sc(C)c5C)-n5c(C)nnc54)c3C2=O)CCC(=O)NC1=O` (mixture of isomers) [D-dBET1] registered a half-life at 0.107 mg/mL of over 24 h. Where the note is “ethyl paraben internal standard”, the “area of chromatography peak normalized to internal standard (UV analysis)” value is listed as “decreased as a function of the incubation time”. The “change of mass spectral isotopic distribution as a function of incubation time” value (up to 24h, LC/MS) was “did not change significantly”.
